These results are taken from US7858618B2, “Compounds” (Boehringer Ingelheim International GmbH, priority 2006, dated 2010).

This test addresses T1, hBK1 receptor (Homo sapiens, UniProt P46663).
T1 construct: expressed in transfected cells; host or cells: CHO cells
T1 sequence (P46663 1-353): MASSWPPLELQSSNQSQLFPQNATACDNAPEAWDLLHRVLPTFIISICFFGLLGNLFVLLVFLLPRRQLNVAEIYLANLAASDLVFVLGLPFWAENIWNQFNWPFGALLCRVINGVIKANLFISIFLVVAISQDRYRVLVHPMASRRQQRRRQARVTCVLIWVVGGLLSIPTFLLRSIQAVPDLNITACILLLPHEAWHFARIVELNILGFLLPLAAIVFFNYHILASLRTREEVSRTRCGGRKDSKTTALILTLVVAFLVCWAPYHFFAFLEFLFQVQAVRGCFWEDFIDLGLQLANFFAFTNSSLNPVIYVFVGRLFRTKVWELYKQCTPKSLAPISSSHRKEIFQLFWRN
Description: hBK1 receptor binding (displacement of [3H]-kallidin (DesArg10, Leu9) from membranes of CHO cells expressing the hBK1 receptor). The settings on record: CHO cell membranes expressing hBK1 receptor; 0.5 to 1.0 nM [3H]-kallidin (DesArg10, Leu9); 60 minutes at room temperature. On the procedure: Description of the Method of hBK1 Receptor Binding
CHO cells expressing the hBK1 receptor are cultivated in Dulbecco's modified medium. The medium from confluent cultures is removed and the cells are washed with PBS buffer, scraped off and isolated by centrifugation. The cells are then homogenized in suspension and the homogenate is centrifuged and resuspended. The protein content is determined and the membrane preparation obtained in this manner is then frozen at −80° C.
After thawing, 200 μl of the homogenate (50 to 100 μg of proteins/assay) are incubated at room temperature with 0.5 to 1.0 nM of kallidin (DesArg10, Leu9), [3,4-prolyl-3,43H(N)] and increasing concentrations of the test substance in a total volume of 250 μl for 60 minutes. The incubation is terminated by rapid filtration through GF/B glass fibre filters which had been pretreated with polyethyleneimine (0.3%). The protein-bound radioactivity is measured in a TopCount NXT. Non-specific binding is defined as radioactivity bound in the presence of 1.0 μM of kallidin (DesArg10, Leu9), [3,4-prolyl-3,43H(N)]. The concentration/binding curve is analysed using a computer-assisted nonlinear curve fitting. The Ki which corresponds to the test substance is determined using the data obtained in this manner. […]

SMILES strings stand for the structures.

With `CN(CCC(=O)Nc1ccc(N2CCN(c3ccncc3)CC2)cc1)S(=O)(=O)c1cccc(Cl)c1Cl` [(1)], affinity was put at a Ki of 6.2 nM. That is a single-digit nanomolar value.
For `COc1cc(C)c(S(=O)(=O)N(C)CCC(=O)Nc2ccc(N3CCN(c4ccncc4)CC3)cc2)c(C)c1` [(13)] the value was 2.1 nM.
Consider `COc1cc(C)c(S(=O)(=O)N(C)CCC(=O)Nc2ccc(N3CCN(c4ccncc4)CC3)nc2)c(C)c1` [(22)], for which the Ki (usually the equilibrium dissociation constant of an inhibitor or competing ligand from its target) is 7 nM.
Regarding `COc1cc(C)c(S(=O)(=O)N(C)CCOCC(=O)N(C)CC2CCN(c3ccnc(C)c3)CC2)c(C)c1` [(53)], the affinity corresponds to a Ki of 2.4 nM.
As for `COc1cc(C)c(S(=O)(=O)N(C)CCOCC(=O)N(C)Cc2ccc(-c3cn4c(n3)CCCC4)cc2)c(C)c1` [(55)], the affinity corresponds to a Ki of 0.7 nM.
Next, `COc1cc(C)c(S(=O)(=O)N(C)CCOCC(=O)N(C)Cc2ccc(CNC(C)C)cc2)c(C)c1` [(59)]: 6.3 nM.
`COc1cc(C)c(S(=O)(=O)N(C)CCOCC(=O)N(C)CC2CCN(c3ccncc3)CC2)c(C)c1` [(61)] had a Ki of 3.3 nM.
`COc1cc(C)c(S(=O)(=O)N(C)CCOCC(=O)N(C)Cc2ccc(-c3cn(C)cn3)cc2)c(C)c1` [(66)]: the inhibition constant Ki was 4.6 nM.
On to `COc1cc(C)c(S(=O)(=O)N(C)CCOCC(=O)N(C)Cc2ccc(-c3cn(C)c(C)n3)cc2)c(C)c1` [(67)], for which the Ki came out at 0.4 nM.
As to `COc1cc(C)c(S(=O)(=O)N(C)CCOCC(=O)N(C)Cc2ccc(CNC3CCCC3)cc2)c(C)c1` [(72)], the Ki turned out to be 2.8 nM.
With `COc1cc(C)c(S(=O)(=O)N(C)CCOCC(=O)N(C)Cc2ccc(-c3cn4ccccc4n3)cc2)c(C)c1` [(73)], the affinity, expressed as Ki, was 6.8 nM.
Molecule `CCC(CC)NCc1ccc(CN(C)C(=O)COCCN(C)S(=O)(=O)c2c(C)cc(OC)cc2C)cc1` [(77)] displayed a Ki of 8.7 nM.
The molecule `COc1cc(C)c(S(=O)(=O)N(C)CCOCC(=O)N(C)Cc2ccc(CNC(C)(C)C)cc2)c(C)c1` [(78)] came in with a Ki of 5.8 nM.
Next, `CCN(CC)CC1CCN(c2ccc(NC(=O)CCN(C)S(=O)(=O)c3c(C)cc(OC)cc3C)cc2C)CC1` [(97)]: 6.7 nM; `COc1cc(C)c(S(=O)(=O)N(C)CCOCC(=O)N(C)Cc2ccc(CN(C)C3CCCC3)cc2)c(C)c1` [(102)]: 5 nM.
On to `COc1cc(C)c(S(=O)(=O)N(C)CCOCC(=O)N(C)Cc2ccc(CN3CCCC3)cc2)c(C)c1` [(109)], for which the affinity corresponds to a Ki of 6 nM.
Next, `COc1cc(C)c(S(=O)(=O)N(C)CCOCC(=O)N(C)CC2CCN(c3cc[n+](C)cc3)CC2)c(C)c1` [(114)]: 4.4 nM.
With `COc1cc(C)c(S(=O)(=O)N(C)CCOCC(=O)N(C)Cc2ccc(-c3c[nH]c(C)n3)cc2)c(C)c1` [(117)], the affinity corresponds to a Ki of 0.99 nM.
`COc1cc(C)c(S(=O)(=O)N(C)CCCCC(=O)N(C)CC2CCN(c3ccncc3)CC2)c(C)c1` [(130)] returned an inhibition constant (Ki) of 5.7 nM.
Consider `COc1cc(C)c(S(=O)(=O)N(C)CCC(=O)Nc2ccc(N3CCC(N(C)C)CC3)c(Cl)c2)c(C)c1` [(180)], for which the inhibition constant Ki is 5.2 nM.
Next, `CCN(CC)CC1CCN(c2ccc(NC(=O)CCN(C)S(=O)(=O)c3c(C)cc(OC)cc3C)cc2Cl)CC1` [(181)]: 7.1 nM; `COc1cc(C)c(S(=O)(=O)N(C)CCC(=O)Nc2ccc(N3CCC(CCN(C)C)CC3)c(Cl)c2)c(C)c1` [(182)]: 4.8 nM; `COc1cc(C)c(S(=O)(=O)N(C)CCC(=O)Nc2cc(F)c(N3CCC(N(C)C)CC3)cc2C)c(C)c1` [(183)]: 6.6 nM.
Regarding `COc1cc(C)c(S(=O)(=O)N(C)CCC(=O)Nc2cc(Br)c(N3CCC(N(C)C)CC3)cc2C)c(C)c1` [(184)], the Ki came to 1.3 nM.
For `COc1cc(C)c(S(=O)(=O)N(C)CCC(=O)Nc2cc(C)c(N3CCC(N(C)C)CC3)cc2Cl)c(C)c1` [(186)] the value was 3.4 nM; for `COc1cc(C)c(S(=O)(=O)N(C)CCC(=O)NC2CCN(c3ccc(CN4CCCC4)cc3Cl)CC2)c(C)c1` [(188)], 9.4 nM.
Molecule `COc1cc(C)c(S(=O)(=O)N(C)CCC(=O)NC2CCN(c3ncc(CN4CCCC4)cc3Cl)CC2)c(C)c1` [(216)] registered a Ki of 4.9 nM. This Ki lies about 1.9-fold lower than the previous one.
Take `COc1cc(C)c(S(=O)(=O)N(C)CCC(=O)Nc2ccc(N3CCN(c4cc[n+](C)cc4)CC3)cc2)c(C)c1` [(227)]: the Ki stood at 4.8 nM.
For `COc1cc(C)c(S(=O)(=O)N(C)CCC(=O)NCc2ccc(N3CCC(N4CCCC4)CC3)c(C)c2)c(C)c1` [(269)] the value was 7.8 nM; for `COc1cc(C)c(S(=O)(=O)N(C)CCC(=O)N[C@H]2CC[C@H](N3CCC(CCN4CCCC4)CC3)CC2)c(C)c1` [(303)], 6.32 nM; for `COc1cc(C)c(S(=O)(=O)N(C)CCOCC(=O)N(C)Cc2ccc(N(C)CCN(C)C)cc2)c(C)c1` [(323)], 2.8 nM.
The molecule `COc1cc(C)c(S(=O)(=O)N(C)CCOCC(=O)N(C)Cc2ccc(NCCN(C)C)cc2)c(C)c1` [(325)] showed an inhibitory constant (Ki) of 0.94 nM. Against the preceding molecule, the Ki is about 3-fold lower.
As for `COc1cc(C)c(S(=O)(=O)N(C)CCOCC(=O)N(C)Cc2ccc(C3CCN(C)CC3)cc2)c(C)c1` [(326)], the Ki turned out to be 6.5 nM.
Molecule `COc1cc(C)c(S(=O)(=O)N(C)CCOCC(=O)N(C)Cc2ccc(N3CCC(N(C)C)C3)cc2)c(C)c1` (stereo not shown) [(334)] returned a Ki of 8.65 nM.
The molecule `COc1cc(C)c(S(=O)(=O)N(C)CCOCC(=O)N(C)Cc2ccc(N3CCCC3CN(C)C)cc2)c(C)c1` (stereo not shown) [(335)] gave an inhibitory constant (Ki) of 9.37 nM.
Consider `COc1cc(C)c(S(=O)(=O)N(C)CCOCC(=O)N(C)Cc2ccc(CN3CCCC3)cc2C)c(C)c1` [(338)], for which affinity was put at a Ki of 1.11 nM. This Ki is about 8.4-fold lower than that of the molecule before.
`COc1cc(C)c(S(=O)(=O)N(C)CCOCC(=O)N(C)Cc2ccc(OCCN(C)C)c(Cl)c2)c(C)c1` [(352)] returned an inhibition constant Ki of 9.2 nM. Compared with the last molecule, the Ki is about 8.3-fold higher.
On to `COc1cc(C)c(S(=O)(=O)N(C)CCOCC(=O)N(C)Cc2ccc(N3CCC(N4CCCC4)C3)cc2)c(C)c1` (stereo not shown) [(353)], for which the Ki was found to be 6.1 nM.
For `COc1cc(C)c(S(=O)(=O)N(C)CCOCC(=O)N(C)Cc2ccc(N3CCC(N(C)C)C3)cc2Cl)c(C)c1` (stereo not shown) [(356)], the Ki turned out to be 8.8 nM.
`COc1cc(C)c(S(=O)(=O)N(C)CCOCC(=O)N(C)Cc2ccc(OCCN3CCCC3)cc2)c(C)c1` [(358)] yielded a Ki of 3.5 nM. Against the preceding molecule, the Ki is about 2.5-fold lower.
Next, `COc1cc(C)c(S(=O)(=O)N(C)CCOCC(=O)N(C)Cc2ccc3nc(N)ccc3c2)c(C)c1` [(360)]: 4.4 nM; `COc1cc(C)c(S(=O)(=O)N(C)CCOCC(=O)N(C)Cc2ccc3[nH]c(N)nc3c2)c(C)c1` [(361)]: 7.4 nM; `COc1cc(C)c(S(=O)(=O)N(C)CCOCC(=O)N(C)Cc2ccc3nc(N(C)C)ccc3c2)c(C)c1` [(365)]: 2.4 nM.
As to `CNc1ccc2cc(CN(C)C(=O)COCCN(C)S(=O)(=O)c3c(C)cc(OC)cc3C)ccc2n1` [(367)], the affinity corresponds to a Ki of 2.7 nM.
For `COc1cc(C)c(S(=O)(=O)N(C)CCOCC(=O)N(C)Cc2ccc3nc(NCCN(C)C)ccc3c2)c(C)c1` [(368)] the value was 1.52 nM; for `COc1cc(C)c(S(=O)(=O)N(C)CCOCC(=O)N(C)Cc2ccc3c(c2)nc(N)n3C)c(C)c1` [(369)], 3.8 nM.
The molecule `COc1cc(C)c(S(=O)(=O)N(C)CCOCC(=O)N(C)CC2CCC(NCCN(C)C)CC2)c(C)c1` (stereo not shown) [(372)] gave a Ki of 2.39 nM. Against the preceding molecule, the Ki is about 1.6-fold lower.
In turn, `COc1cc(C)c(S(=O)(=O)N(C)CCOCC(=O)N(C)Cc2ccc(N3CCCC(N(C)C)C3)cc2C)c(C)c1` (stereo not shown) [(381)] had a Ki of 8.1 nM.
In the case of `COc1cc(C)c(S(=O)(=O)N(C)CCOCC(=O)N(C)C[C@H]2CC[C@@H](NCCN(C)C)CC2)c(C)c1` [(383)], the inhibition constant Ki worked out at 6.2 nM.
On to `COc1cc(C)c(S(=O)(=O)N(C)CCOCC(=O)N(C)CC2CCN(C3CCN(C)CC3)CC2)c(C)c1` [(384)], for which affinity was put at a Ki of 9.3 nM. Compared with the last molecule, the Ki is about 1.5-fold higher.
On to `COc1cc(C)c(S(=O)(=O)N(C)CCOCC(=O)N(C)Cc2ccc(N3CC[C@@H](N(C)C)C3)cc2)c(C)c1` [(385)], for which affinity was put at a Ki of 6.4 nM.
For `COc1cc(C)c(S(=O)(=O)N(C)CCOCC(=O)N(C)C(C)c2ccc3c(c2)CCN(C)CC3)c(C)c1` (stereo not shown) [(386)], the affinity corresponds to a Ki of 6.3 nM. The Ki values of the last two molecules are within 1.5-fold of each other.
`COc1cc(C)c(S(=O)(=O)N(C)CCOCC(=O)N(C)Cc2ccc(N(C)CCN(C)C)cc2C)c(C)c1` [(389)] gave an inhibition constant (Ki) of 3.7 nM.
For `COc1cc(C)c(S(=O)(=O)N(C)CCOCC(=O)N(C)C[C@H]2CC[C@H](CN3CCC3)CC2)c(C)c1` [(392)] the value was 8.3 nM; for `COc1cc(C)c(S(=O)(=O)N(C)CCOCC(=O)N(C)[C@H]2CCN(C3CCN(C)CC3)C2)c(C)c1` [(393)], 1.6 nM; for `COc1cc(C)c(S(=O)(=O)N(C)CCOCC(=O)N(C)C2CCN(C3CCN(C)CC3)CC2)c(C)c1` [(397)], 7.5 nM.
On to `COc1cc(C)c(S(=O)(=O)N(C)CCOCC(=O)N(C)[C@@H]2CCN(C3CCN(C(C)C)CC3)C2)c(C)c1` [(398)], for which the affinity, expressed as Ki, was 0.74 nM.
Molecule `COc1cc(C)c(S(=O)(=O)N(C)CCOCC(=O)N(C)[C@H]2CCN(C3CCN(C(C)C)CC3)C2)c(C)c1` [(399)] came in with a Ki of 3 nM. Compared with the last molecule, the Ki is about 4.1-fold higher.
